{"source": "paper PMC11859092", "about": "(Pharmaceutics, 2025)", "key": {"[1]": {"experiment": "In vitro cytotoxicity test (MTT)", "assay_type": "cell-based", "method": "Thereafter, cell viability was determined by the 3-(4,5-dimethylthiazol-2-yl)-2,5-diphenyl tetrazolium bromide (MTT, Sigma-Aldrich, St. Louis, MO, USA) method at a final concentration 0.5 mg/mL. After 2 h of incubation at 37 °C, the supernatants were removed, ethanol was added to each well to solubilize the formazan crystals and absorbance was measured in a multi-mode microplate reader (FLUOstar® Omega, Labtech, Eschelbronn, Germany) at 595 nm. […] All determinations were performed in triplicate."}, "DENV-2": {"system": "DENV-2", "experiment": "microbe, parasite or virus in culture", "assay_type": "cell-based, DENV type-2 (DENV-2) strain NGC", "conditions": "Dengue virus"}, "ZIKV": {"system": "ZIKV", "experiment": "Virus yield inhibition assay (PFU)", "assay_type": "cell-based, ZIKV INEVH-116141 strain", "conditions": "Zika virus, m.o.i. 0.1, 48 h p.i."}, "YFV": {"system": "YFV", "experiment": "microbe, parasite or virus in culture", "assay_type": "cell-based, YFV vaccine strain YF-17D", "conditions": "Yellow fever virus"}, "[2]": {"conditions": "cited from earlier work"}, "[3]": {"conditions": "cited from earlier work", "remark": "listed apart in the source"}, "[4]": {"experiment": "EFV solubilization in Soluplus nanomicelle dispersions (apparent aqueous solubility, RP-HPLC)", "conditions": "distilled water, 25 °C"}}, "data": [{"smiles": "O=C1Nc2ccc(Cl)cc2[C@@](C#CC2CC2)(C(F)(F)F)O1", "note": "[EFV, Efavirenz]", "values": [{"measurement": "CC50 at 48 h", "setting": "[1]; African green monkey, Vero", "value": 56.8, "unit": "µg/mL"}, {"measurement": "CC50 at 48 h", "setting": "[1]; human, A549, 48 h", "value": 126, "unit": "µg/mL"}, {"measurement": "EC50", "setting": "DENV-2; DENV2, A549, 48 h", "value": 2.69, "unit": "µg/mL"}, {"measurement": "EC50", "setting": "DENV-2; DENV2, Vero, 48 h", "value": 8.17, "unit": "µg/mL"}, {"measurement": "EC50", "setting": "ZIKV; ZIKV in A549 cells", "value": 4.98, "unit": "µg/mL"}, {"measurement": "EC50", "setting": "ZIKV; ZIKV in Vero cells", "value": 2.41, "unit": "µg/mL"}, {"measurement": "EC50", "setting": "YFV; A549, 48 h", "value": 12.6, "unit": "µg/mL"}, {"measurement": "EC50", "setting": "YFV; Vero, 48 h", "value": 1.48, "unit": "µg/mL"}, {"measurement": "biopharmaceutical classification system (BCS) class", "setting": "[2]", "value": "class II"}, {"measurement": "intrinsic aqueous solubility", "setting": "[2]", "value": 4, "unit": "µg/mL"}, {"measurement": "Cmax in humans", "setting": "[3]", "value": 4000, "unit": "ng/mL"}, {"measurement": "PM molar partition coefficient (micelle/water)", "setting": "[4]; Soluplus 1% w/v", "value": 5368}, {"measurement": "P partition coefficient (micelle/water)", "setting": "[4]; Soluplus 3% w/v", "value": 1327}, {"measurement": "PM molar partition coefficient (micelle/water)", "setting": "[4]; Soluplus 3% w/v", "value": 5220}, {"measurement": "P partition coefficient (micelle/water)", "setting": "[4]; Soluplus 5% w/v", "value": 2247}, {"measurement": "PM molar partition coefficient (micelle/water)", "setting": "[4]; Soluplus 5% w/v", "value": 5303}, {"measurement": "P partition coefficient (micelle/water)", "setting": "[4]; Soluplus 7% w/v", "value": 3667}, {"measurement": "PM molar partition coefficient (micelle/water)", "setting": "[4]; Soluplus 7% w/v", "value": 6181}, {"measurement": "P partition coefficient (micelle/water)", "setting": "[4]; Soluplus 10% w/v", "value": 4802}, {"measurement": "PM molar partition coefficient (micelle/water)", "setting": "[4]; Soluplus 10% w/v", "value": 5666}]}]}
